{
  "source": "patent US9090617B1",
  "about": "“Agonists of Src homology-2 containing protein tyrosine phosphatase-1 and treatment methods using the same” (National Taiwan University, priority 2011, dated 2015)",
  "key": {"Raf-1": {"target": "T1, Raf-1 (Homo sapiens, UniProt P04049)", "T1 construct": "Raf-1 immunoprecipitated from PLC5 cell extracts was incubated with MEK recombinant protein; endogenous in cells; host or cells: PLC5", "T1 sequence (P04049 whole entry)": "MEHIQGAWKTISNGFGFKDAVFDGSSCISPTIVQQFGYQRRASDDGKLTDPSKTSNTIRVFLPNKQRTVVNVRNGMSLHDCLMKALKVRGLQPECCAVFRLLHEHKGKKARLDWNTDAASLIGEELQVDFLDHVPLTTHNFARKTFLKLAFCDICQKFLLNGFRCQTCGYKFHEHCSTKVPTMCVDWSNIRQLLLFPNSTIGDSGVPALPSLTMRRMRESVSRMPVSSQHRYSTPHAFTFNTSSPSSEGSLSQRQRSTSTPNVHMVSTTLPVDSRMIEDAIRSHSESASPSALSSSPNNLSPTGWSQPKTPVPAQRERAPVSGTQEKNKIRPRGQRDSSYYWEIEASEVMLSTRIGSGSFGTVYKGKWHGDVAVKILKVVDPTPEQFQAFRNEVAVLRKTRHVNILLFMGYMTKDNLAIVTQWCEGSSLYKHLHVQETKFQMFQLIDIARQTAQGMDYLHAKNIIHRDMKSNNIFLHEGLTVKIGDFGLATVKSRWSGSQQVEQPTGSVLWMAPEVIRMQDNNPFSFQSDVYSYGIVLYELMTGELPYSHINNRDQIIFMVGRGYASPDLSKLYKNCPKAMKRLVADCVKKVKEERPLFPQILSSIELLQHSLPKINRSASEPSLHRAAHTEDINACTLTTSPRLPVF", "test": "Raf-1 kinase activity in lysates of treated cells", "format": "cell-based", "description": "(§1) The RediPlate 96 EnzChek® Tyrosine Phosphatase Assay Kit (R-22067) was used for SHP-1 activity assay (Molecular Probes, Carlsbad, Calif.). The Raf-1 kinase cascade assay kit (Upstate-Millipore, Billerica, Mass.) was used to examine the Raf-1 kinase activity. The JAK2 kinase activity kit was purchased from Reaction Biology Corp. (Malvern, Pa.)."}, "STAT3": {"system": "STAT3", "test": "STAT3 luciferase reporter assay", "format": "cell-based", "details": "10 μM, 24 h", "protocol": "Cells were seeded in 96-well plate and pre-treated with IL-6 at the dose […] for 30 min. The STAT3 reporter kit was purchased from SABiosciences (Frederick, Md.).\nSTAT3 reporter assay: PLC5 cells were seeded in a 96-well plate. Cells were pretransfected with STAT3 reporter construct for 24 h and treated with derivatives for another 24 h. The STAT3 Reporter Kit was purchased from SABiosciences."}, "PLC5 cells": {"system": "PLC5 cells", "test": "MTT assay for cell growth inhibition in PLC5 cells", "format": "cell-based", "protocol": "These compounds were analyzed by MTT assay for cell growth inhibition in the PLC5 cells.\nNext, we changed the pyridine to a quinoline ring and amide linker to generate compounds 12-25. These compounds were also analyzed by MTT assay for cell growth inhibition in the PLC5 cells."}, "phospho-STAT3 (Tyr705)": {"system": "phospho-STAT3 (Tyr705)", "test": "Phospho-STAT3 (Tyr705) sandwich ELISA", "format": "cell-based", "protocol": "A PathScan Phospho-Stat3 (Tyr705) Sandwich ELISA Kit was used for the detection of phospho-STAT3 (Cell Signaling, Danvers, Mass.). Cells were pre-treated with IL-6 1 ng/ml and then exposed with various compounds at 10 μM for 24 h. After incubation with cell lysates, both non-phospho- and phospho-Stat3 proteins are captured by the coated antibody. The expression of phospho-STAT3 was measured at 450 nm absorbance.\nThe decreased level of P-STAT3 induced by these derivatives was correlated with cell toxicity. In the other words, these derivatives induced cell death in part through inhibition of STAT3.\nWe also assayed the activation status of p-STAT3 by STAT3 ELISA. […] SC-1 or sorafenib-treated cell extracts were incubated with antibody against phosphorylated STAT3 at Y705. […] To evaluate the transcriptional activity, STAT3-binding region was cloned into Luc reporter. […] The firefly luciferase activity was evaluated and normalized by Renilla luciferase.\np-STAT3 activity: PLC5 cells treated with SC derivatives were collected in RIPA buffer and analyzed in p-STAT3 ELISA kit. The assay protocol follows the manufacturer."}, "Huh-7 tumors": {"system": "Huh-7 tumors", "protocol": "Male NCr athymic nude mice (5-7 weeks of age) were obtained from the National Laboratory Animal Center (Taipei, Taiwan). All experimental procedures using these mice were performed in accordance with protocols approved by National Taiwan University. […] Controls received vehicle (Chen K F et al. Cancer Res. 2008; 68:6698-6707)."}, "JAK2": {"target": "T2, JAK2 (Homo sapiens, UniProt O60674)", "T2 construct": "endogenous in cells; host or cells: PLC5", "T2 sequence (O60674 whole entry)": "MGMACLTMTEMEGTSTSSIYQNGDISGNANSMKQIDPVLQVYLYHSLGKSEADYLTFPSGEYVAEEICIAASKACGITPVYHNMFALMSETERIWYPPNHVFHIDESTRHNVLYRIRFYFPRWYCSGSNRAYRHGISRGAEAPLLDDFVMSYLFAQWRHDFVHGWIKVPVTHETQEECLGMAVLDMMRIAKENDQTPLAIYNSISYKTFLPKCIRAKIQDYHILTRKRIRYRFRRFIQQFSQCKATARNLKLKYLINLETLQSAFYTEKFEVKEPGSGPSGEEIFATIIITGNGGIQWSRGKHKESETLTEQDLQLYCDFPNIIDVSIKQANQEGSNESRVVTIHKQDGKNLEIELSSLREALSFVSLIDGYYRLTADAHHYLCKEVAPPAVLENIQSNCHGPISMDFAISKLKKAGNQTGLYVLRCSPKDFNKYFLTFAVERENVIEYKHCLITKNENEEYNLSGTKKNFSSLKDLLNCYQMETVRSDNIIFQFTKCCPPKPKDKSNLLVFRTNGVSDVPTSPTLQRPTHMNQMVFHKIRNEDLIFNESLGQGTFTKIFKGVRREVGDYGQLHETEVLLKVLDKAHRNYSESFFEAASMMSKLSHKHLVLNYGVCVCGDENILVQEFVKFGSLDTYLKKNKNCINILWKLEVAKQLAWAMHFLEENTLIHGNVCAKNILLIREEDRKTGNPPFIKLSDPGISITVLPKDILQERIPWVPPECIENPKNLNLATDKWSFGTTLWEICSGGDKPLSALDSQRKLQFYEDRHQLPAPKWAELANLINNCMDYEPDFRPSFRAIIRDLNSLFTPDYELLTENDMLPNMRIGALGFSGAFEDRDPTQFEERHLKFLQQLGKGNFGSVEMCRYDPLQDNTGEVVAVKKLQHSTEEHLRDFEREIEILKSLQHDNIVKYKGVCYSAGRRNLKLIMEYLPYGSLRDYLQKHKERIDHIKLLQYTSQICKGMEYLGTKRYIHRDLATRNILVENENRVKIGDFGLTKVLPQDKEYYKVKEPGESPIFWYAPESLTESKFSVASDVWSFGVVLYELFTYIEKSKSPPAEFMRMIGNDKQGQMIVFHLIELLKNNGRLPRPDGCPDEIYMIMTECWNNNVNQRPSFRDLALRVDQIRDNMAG", "test": "JAK2 kinase activity", "format": "cell-based", "details": "PLC5 cells, 10 μM, 24 h", "description": "as §1"}, "[1]": {"system": "MDAMB231, MDAMB468, MCF-7, HL-60, KG-1 and ML-1", "test": "Anti-proliferation in breast cancer and leukemia cell lines", "format": "cell-based", "details": "MDAMB231, MDAMB468, MCF-7, HL-60, KG-1, ML-1", "protocol": "The Huh-7 HCC cell line was obtained from the Health Science Research Resources Bank (Osaka, Japan; JCRB0403). The PLC/PRF/5 (PLC5), Sk-Hep-1, and Hep3B cell lines were obtained from American Type Culture Collection (Manassas, Va.). The cells were maintained in DMEM supplemented with 10% FBS, 100 units/mL penicillin G, 100 μg/mL streptomycin sulfate and 25 μg/mL amphotericin B in a 37° C. humidified incubator in an atmosphere of 5% CO2 in air. Other cell lines, including breast cancer cells e.g. MDAMB231, MDAMB468, MCF-7, and leukemia cancer cells e.g. HL-60, KG-1 and ML-1 are also provided for the assays described below.\nWe also examed the effects of SC-1 and SC-43 in other cancer cell lines, including breast cancer cell lines e.g. MDAMB231, MDAMB468, MCF-7, and leukemia cancer cell lines e.g. HL-60, KG-1 and ML-1."}, "[2]": {"system": "p-STAT3, cyclin D1, survivin, Mc1-1", "test": "Western blot of STAT3-related proteins in HCC cells", "format": "cell-based", "details": "HCC cells, 24 h", "protocol": "Cells were treated with various compounds at 5 and 10 μM for 24 h. Cell lysates were analyzed by western blot.\nHCC cells treated with SC-43 (10 μM for 24 h) were collected with RIPA lysis buffer. Antibodies for immunoblotting such as cyclin D1 was purchased from Santa Cruz Biotechnology. Other antibodies such as survivin, phospho-STAT3 (Tyr705), STAT3, Mc1-1, SOCS1, and SOCS3 were from Cell Signaling."}, "HCC cells [3]": {"system": "HCC cells", "test": "Apoptosis analysis by flow cytometry (sub-G1)", "format": "cell-based", "details": "HCC cells, 24 h", "protocol": "Apoptotic cells were measured by flow cytometry (sub-G1). After treatment with various compounds, cells were trypsinized, collected by centrifugation and resuspended in PBS. After centrifugation, the cells were washed in PBS and resuspended in […] (PI) staining solution. Specimens were incubated in the dark for 30 min at 37° C. and then analyzed with an EPICS Profile II flow cytometer (Coulter Corp., Hialeah, Fla.). All experiments were performed in triplicate\nCollected cells were fixed in 75% Ethanol and stained with 20 ug/ml Propidium Iodide (PI). Sub-G1 analysis was performed by flow-cytometry. […] Points, mean; bars, SD (n=6)."}, "SHP-1": {"target": "SHP-1 (Homo sapiens, UniProt P29350)", "sequence (P29350 whole entry)": "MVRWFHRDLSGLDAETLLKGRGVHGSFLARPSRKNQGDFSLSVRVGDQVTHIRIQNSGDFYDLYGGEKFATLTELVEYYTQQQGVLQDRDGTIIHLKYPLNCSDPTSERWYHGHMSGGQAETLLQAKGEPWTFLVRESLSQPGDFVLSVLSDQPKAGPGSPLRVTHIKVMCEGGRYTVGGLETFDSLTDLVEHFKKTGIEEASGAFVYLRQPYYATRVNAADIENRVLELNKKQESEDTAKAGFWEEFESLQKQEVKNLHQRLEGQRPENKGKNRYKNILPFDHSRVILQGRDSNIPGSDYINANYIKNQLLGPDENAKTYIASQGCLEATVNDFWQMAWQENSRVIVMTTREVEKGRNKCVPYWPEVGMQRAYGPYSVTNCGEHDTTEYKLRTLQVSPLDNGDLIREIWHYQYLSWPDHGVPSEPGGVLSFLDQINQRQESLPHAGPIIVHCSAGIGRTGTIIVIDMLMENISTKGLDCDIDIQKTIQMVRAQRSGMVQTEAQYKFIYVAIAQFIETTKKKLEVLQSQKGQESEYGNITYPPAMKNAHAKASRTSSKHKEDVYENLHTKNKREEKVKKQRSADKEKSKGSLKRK", "test": "Phosphatase activity of SHP-1 immunoprecipitated from PLC5 cells, incubated with compound in vitro", "format": "biochemical", "set-up": "PLC5 protein extract was incubated with anti-SHP-1 antibody in immunoprecipitation buffer overnight; endogenous in cells; host or cells: PLC5 (PLC/PRF/5)", "details": "PLC5 lysates, incubated 6 hours", "protocol": "PLC5 protein extract was incubated with anti-SHP-1 antibody in immunoprecipitation buffer overnight. Protein G Sepharose 4 Fast flow (GE Healthcare Bio-Science) was added to each sample, followed by incubation for 3 hours at 4° C. with rotation. […] RediPlate 96 EnzChek Tyrosine Phosphatase Assay kit (R-22067) was used for SHP-1 activity assay (Molecular Probes)."}, "HCC cells [4]": {"system": "HCC cells", "test": "cells", "description": "Points, mean; bars, SD (n=6).\nPoints, mean; bars, SD ([…]). […] The N-SH2 domain is in orange, the C-SH2 domain is in marine, the PTP domain is in hot pink, and the linkers between them are in gray. […] ELISA, enzyme-linked immunosorbent assay."}},
  "note": "“Also recorded” adds a separate entry of the source.",
  "data": [
    {"smiles": "N#Cc1ccc(Oc2ccc(NC(=O)Nc3ccc(Cl)c(C(F)(F)F)c3)cc2)cc1", "note": "[Compound 1, 1-(4-Chloro-3-(trifluoromethyl)phenyl)-3-(4-(4-cyanophenoxyl)phenyl)urea]", "values": [
      {"measurement": "Raf-1 activity versus vehicle control", "setting": "Raf-1; PLC5 cells (FIG. 3)", "value": "showed the same Raf-1 activity as vehicle control"},
      {"measurement": "inhibition of Raf-1 activity", "setting": "Raf-1; Raf-1 immunoprecipitated from PLC5 or Hep3B cell extracts, 10 μM, 24 h", "value": "did not inhibit the activity of Raf-1"},
      {"measurement": "transcription activity of STAT3 (Luc reporter)", "setting": "STAT3", "value": "transcription activity of STAT3 was significantly decreased"},
      {"measurement": "IC50", "setting": "PLC5 cells", "value": 7.5, "unit": "µM"},
      {"measurement": "P-STAT3 state by ELISA", "setting": "phospho-STAT3 (Tyr705); PLC5 cells, IL-6 stimulated, 10 uM, 24 h", "value": "showed a high degree of dephosphorylation of STAT3; also recorded: exhibited the same level of downregulation of P-STAT3 as sorafenib did"},
      {"measurement": "activity of p-STAT3 by STAT3 ELISA", "setting": "phospho-STAT3 (Tyr705); Sk-Hep1 cells pre-treated with IL-6, 24 h", "value": "decreased the activity of p-STAT3 significantly"},
      {"measurement": "tumor size relative to vehicle-treated mice at the end of treatment", "setting": "Huh-7 tumors; Huh-7 xenograft, 10 mg/kg p.o. once daily", "value": 25, "unit": "%"},
      {"measurement": "SHP-1 activity in Huh-7 tumors", "setting": "Huh-7 tumors; tumor extract", "value": "induced significant rising of SHP-1 activity"},
      {"measurement": "p-STAT3 in Huh-7 tumors", "setting": "Huh-7 tumors; tumor extract, Western blot", "value": "down regulated p-STAT3"},
      {"measurement": "kinase activity of JAK2", "setting": "JAK2", "value": "neither sorafenib nor SC-1 altered the kinase activity of JAK2"},
      {"measurement": "growth of breast cancer and leukemia cell lines", "setting": "[1]", "value": "effective in inhibiting the growth of cancer cells"},
      {"measurement": "expression of p-VEGFR2 (Tyr1175)", "setting": "p-VEGFR2 (Tyr1175)", "value": "did not have significant effect"},
      {"measurement": "p-STAT3 and STAT3-related proteins (Western blot)", "setting": "[2]", "value": "down-regulated p-STAT3 at Y705 residue and suppressed Mc1-1 and cyclin D1"},
      {"measurement": "apoptosis (sub-G1)", "setting": "HCC cells [3]", "value": "showed a significant increase in sub-G1 phase population"},
      {"measurement": "activity of SHP-1 in SHP-1 immunoprecipitates incubated with drug", "setting": "SHP-1", "value": "increase the activity of SHP-1"},
      {"measurement": "viability of HCC cells / cytotoxicity", "setting": "HCC cells [4]", "value": "decreased the viability of various HCC cells"}
    ]}
  ]
}
